Results published in patent US20080274522A1, “METHOD FOR THE PRODUCTION OF 2-BUTANONE” (priority 2007, published 2008).

Columns and labels:
[1] = tested on: Erwinia amino alcohol O-phosphate lyase; assay: Aminopropanol O-phosphate lyase assay (MBTH, OD670); format: biochemical, Erwinia carotovora subsp. atroseptica; settings: 10 mM substrate, 37° C.
Description: The pBAD.KA-AT plasmid was transformed into the E. coli TOP10 strain. A 50 mL culture of TOP10/pBAD.KA-AT strain was grown to mid log phase (OD600=0.6) in LB, 100 μg/mL ampicillin media at 37° C. with shaking at 250 rpm. The culture was induced by addition of L-arabinose to a final concentration of 0.1% (w/v), and it was further incubated at 37° C. for 5 h before harvesting by centrifugation. The cell pellet was resuspended in ice cold 50 mM Tris-HCl, pH 8.0, and disrupted by sonication on ice with a Fischer Sonic Model 300 Dismembrator (Fischer, Pittsburgh, Pa.) at 50% power, repeating four cycles of 30 seconds sonication with 60 seconds rest in-between each cycle. Each sonicated sample was centrifuged (15,000×g, 4 min, 4° C.). Clarified cell free extracts were analyzed for protein expression level and amino alcohol O-phosphate lyase activity.
The aminopropanol O-phosphate lyase assay was performed as described by Jones et al. (1973, Biochem. J. 134:167-182) and G. Gori et al. (1995, Chromatographia 40:336) The formation of propionaldehyde from aminopropanol O-phosphate was assayed calorimetrically with MBTH, which allows the detection of aldehyde formation. The reaction was performed as follows. In a 1 mL reaction, 100 μg cell free extract of E. coli TOP10/pBAD.KA-AT was added to 10 mM DL-1-amino-2-propanol O-phosphate in 100 mM Tris-HCl, pH 7.8, with 0.1 mM PLP. The reaction was incubated at 37° C. for 10 min and 30 min, with an aliquot of 100 μL reaction mixture removed at each time point and mixed with 100 μL of 6 mg/mL MBTH in 375 mM glycine-HCl, pH 2.7. This mixture was incubated at 100° C. for 3 min, cooled on ice for 15-30 s, and 1 mL of 3.3 mg/mL FeCl3.6H2O (in 10 mM HCl) was added, followed by incubation for 30 min at room temperature. The absorbance of the reaction mixture which contains the aldehyde-MBTH adduct, was measured at 670 nm. In the presence of the aminopropanol phosphate substrate, PLP and cell free extract, formation of aldehyde was detected, as indicated by an Abs670 that was higher than the control background of up to 0.3. In the absence of either the substrate or the cell free extract, no aldehyde formation was detected. In the absence of added PLP, somewhat less amount aldehyde was detected, presumably due to the presence of PLP in the cell free extract.

[2] = tested on: B12-independent diol dehydratase; settings: Hartmanis et al. (1986); cited from earlier work
[3] = tested on: Lactobacillus plantarum PN0512; assay: Growth of L. plantarum PN0512 in the presence of butanols at different temperatures (OD600); format: cell-based; set-up: key to Growth of L. plantarum PN0512 in the presence of 1-butanol / Growth of L. plantarum PN0512 in the presence of isobutanol / Growth of L. plantarum PN0512 in the presence of 2-butanol: +: growth observed as an increase in OD600.; −: no growth observed, i.e. no change in OD600
Description: Tolerance levels of bacterial strain Lactobacillus plantarum PN0512 (ATCC # PTA-7727) were determined at 25° C., 30° C. and 37° C. as follows. The strain was cultured in S30L medium (i.e., 10 mM ammonium sulfate, 5 mM potassium phosphate buffer, pH 7.0, 50 mM MOPS, pH 7.0, 2 mM MgCl2, 0.7 mM CaCl2, 50 μM MnCl2, 1 μM FeCl3, 1 μM ZnCl2, 1.72 μM CuCl2, 2.53 μM COCl2, 2.42 μM Na2MoO4, 2 μM thiamine hydrochloride, 10 mM glucose, and 0.2% yeast extract). An overnight culture in the absence of any test compound was started in 15 mL of the S30L medium in a 150 mL flask, with incubation at 37° C. in a shaking water bath. The next morning, the overnight culture was diluted into three 500 mL flasks containing 150 mL of fresh medium to an initial OD600 of about 0.08. Each flask was incubated in a shaking water bath, one each at 25° C., 30° C. and 37° C. Each large culture was allowed to acclimate at the test temperature for at least 0.5 h. […] Growth was followed by measuring OD600 for six hours after addition of the compounds.

[4] = Sample 2: induced cell free extract, PLP (+)
[5] = Sample 4: induced cell free extract, PLP (−)

CC(CN)OP(=O)(O)O (racemic) [Aminopropanol O-phosphate, DL-1-amino-2-propanol O-phosphate]
OD670, 10 min [1, 4]: 1.229 | OD670, 30 min [1, 4]: 2.264 | OD670, 10 min [1, 5]: 0.855 | OD670, 30 min [1, 5]: 1.454

CC(O)C(C)O (stereo not shown) [2,3-butanediol]
Activity relative to the activity towards ethanediol [2]: less than 1%

CCC(C)O (stereo not shown) [2-butanol]
Growth of L. plantarum PN0512 in the presence of 2-butanol ([3]; 1.8 % w/v, 37° C.): + | Growth of L. plantarum PN0512 in the presence of 2-butanol ([3]; 2.1 % w/v, 37° C.): + | Growth of L. plantarum PN0512 in the presence of 2-butanol ([3]; 2.9 % w/v, 25° C.): + | Growth of L. plantarum PN0512 in the presence of 2-butanol ([3]; 2.9 % w/v, 30° C.): + | Growth of L. plantarum PN0512 in the presence of 2-butanol ([3]; 2.9 % w/v, 37° C.): + | Growth of L. plantarum PN0512 in the presence of 2-butanol ([3]; 3.1 % w/v, 37° C.): + | Growth of L. plantarum PN0512 in the presence of 2-butanol ([3]; 3.6 % w/v, 37° C.): + | Growth of L. plantarum PN0512 in the presence of 2-butanol ([3]; 3.8 % w/v, 25° C.): + | Growth of L. plantarum PN0512 in the presence of 2-butanol ([3]; 3.8 % w/v, 30° C.): + | Growth of L. plantarum PN0512 in the presence of 2-butanol ([3]; 3.8 % w/v, 37° C.): + | Growth of L. plantarum PN0512 in the presence of 2-butanol ([3]; 4.0 % w/v, 30° C.): + | Growth of L. plantarum PN0512 in the presence of 2-butanol ([3]; 4.3 % w/v, 25° C.): + | Growth of L. plantarum PN0512 in the presence of 2-butanol ([3]; 4.3 % w/v, 30° C.): + | Growth of L. plantarum PN0512 in the presence of 2-butanol ([3]; 4.3 % w/v, 37° C.): + | Growth of L. plantarum PN0512 in the presence of 2-butanol ([3]; 4.7 % w/v, 25° C.): + | Growth of L. plantarum PN0512 in the presence of 2-butanol ([3]; 4.7 % w/v, 30° C.): + | Growth of L. plantarum PN0512 in the presence of 2-butanol ([3]; 4.7 % w/v, 37° C.): − | Growth of L. plantarum PN0512 in the presence of 2-butanol ([3]; 4.9 % w/v, 25° C.): + | Growth of L. plantarum PN0512 in the presence of 2-butanol ([3]; 4.9 % w/v, 30° C.): − | Growth of L. plantarum PN0512 in the presence of 2-butanol ([3]; 5.2 % w/v, 25° C.): + | Growth of L. plantarum PN0512 in the presence of 2-butanol ([3]; 5.2 % w/v, 37° C.): − | Growth of L. plantarum PN0512 in the presence of 2-butanol ([3]; 5.6 % w/v, 25° C.): − | Growth of L. plantarum PN0512 in the presence of 2-butanol ([3]; 5.6 % w/v, 37° C.): − | Growth of L. plantarum PN0512 in the presence of 2-butanol ([3]; 6.0 % w/v, 37° C.): − | Growth of L. plantarum PN0512 in the presence of 2-butanol ([3]; 6.4 % w/v, 37° C.): − | Growth of L. plantarum PN0512 in the presence of 2-butanol ([3]; 7.3 % w/v, 37° C.): − | Concentration in which growth was observed ([3]; 25° C.): 5.2% | Concentration in which growth was not observed ([3]; 30° C.): 4.9% | Concentration in which growth was observed ([3]; 30° C.): 4.7% | Concentration in which growth was not observed ([3]; 37° C.): 4.5% | Concentration in which growth was observed ([3]; 37° C.): 4.3% | Growth of L. plantarum PN0512 in the presence of 2-butanol ([3]; […] w/v, 30° C.): +
